Results from patent US20140066365A1, “USE OF CALIXARENES ASSOCIATED WITH AN ANTIBIOTIC IN THE TREATMENT OF BACTERIAL INFECTIONS” (priority 2011, published 2014).
In brackets after ≈: the same amount, converted by molar mass. Like-named read-outs stand apart in the source and are kept apart here.

Experiments:
[1] = test system: EcR3: ESBL-Producing Escherichia coli; experiment: Antibiogram by the disk diffusion technique; type: cell-based
Protocol: The bacterial and antibiogramidentification is carried out by the VITEK 2 system (bioMerieux) and by the disk diffusion technique

[2] = test system: EcR2: Cephalosporinase-Hyperproducing Strain of Escherichia coli; experiment: Antibiogram by the disk diffusion technique; type: cell-based
Protocol: The bacterial and antibiogramidentification is carried out by the VITEK 1 system (bioMérieux) and by the disk diffusion technique

[3] = test system: EcR1: Penicillinase-Producing Escherichia coli without Associated Resistance; experiment: Antibiogram by the disk diffusion technique; type: cell-based; details: Table A1
Protocol: (§1) 5.1 EcR1: Penicillinase-Producing Escherichia coli without Associated Resistance The bacterial and antibiogramidentification is carried out by the VITEK 2 system (bioMérieux) and by the disk diffusion technique.

[4] = test system: EcR1: Penicillinase-Producing Escherichia coli without Associated Resistance; experiment: Antibiogram, MIC by the VITEK 2 system; type: cell-based; details: for MIC: Escherichia coli
Protocol: as §1

[5] = test system: penicillinase-producing strain of Escherichia coli without associated resistance (EcR1); experiment: MIC of the compounds used alone, microdilution in a liquid medium (CLSI); type: cell-based; details: Escherichia coli, antibiotic alone (second value of cell), read-out: Initial MICs
Excerpt: (§2) The MICs of the antibiotics were previously defined for each strain, by the method of microdilution in a liquid medium (CLSI (Clinical and Laboratory Standards Institute), 2003).

[6] = test system: ESBL-producing strain of Escherichia coli, having an associated resistance to the aminoglycosides (EcR3); experiment: as above; type: cell-based; details: Escherichia coli, antibiotic alone (second value of cell), read-out: Initial MICs
Excerpt: as §2

[7] = test system: cephalosporinase-hyperproducing strain of Escherichia coli (EcR2); experiment: as above; type: cell-based; details: Escherichia coli, antibiotic alone (second value of cell), read-out: Initial MICs
Excerpt: as §2

[8] = test system: Escherichia coli strain ATCC 25922 (wild type); experiment: as above; type: cell-based; details: Escherichia coli
Excerpt: as §2

[9] = test system: SaR1: Meticillin-Resistant Staphylococcus aureus without Associated Resistance; experiment: Antibiogram, MIC by the VITEK 2 system; type: cell-based
Protocol: (§3) The bacterial and antibiogramidentification is carried out by the VITEK 2 system (bioMérieux)

[10] = test system: SaR4: Meticillin-Resistant Staphylococcus aureus; experiment: Antibiogram, MIC by the VITEK 2 system; type: cell-based; details: for MIC: Staphylococcus aureus
Protocol: (§4) The bacterial and antibiogramidentification is carried out by the VITEK 2 system (bioMérieux) and by the disk diffusion technique

[11] = test system: SaR3: Meticillin-Resistant Staphylococcus aureus; experiment: Antibiogram by the disk diffusion technique; type: cell-based
Protocol: as §4

[12] = test system: SaR1: Meticillin-Resistant Staphylococcus aureus without Associated Resistance; experiment: Antibiogram, inhibition diameter (Table D1); type: cell-based; details: from diameter, against Dmin Dmax
Protocol: as §3

[13] = test system: MRSA strain without associated resistance (SaR1); experiment: MIC of the compounds used alone, microdilution in a liquid medium (CLSI); type: cell-based, Staphylococcus aureus; details: Staphylococcus aureus, MRSA
Excerpt: as §2

[14] = test system: MRSA strain having a resistance to the aminoglycosides and fluoroquinolones (SaR3); experiment: as above; type: cell-based, Staphylococcus aureus; details: Staphylococcus aureus, MRSA
Excerpt: as §2

[15] = as above; type: cell-based, Staphylococcus aureus; details: Staphylococcus aureus, MRSA
Excerpt: as §2

[16] = test system: Staphylococcus aureus strain ATCC 29213 (wild type); experiment: as above; type: cell-based; details: Staphylococcus aureus
Excerpt: as §2

[17] = test system: Pseudomonas aeruginosa strain ATCC 27853 (wild type); experiment: as above; type: cell-based; details: Pseudomonas aeruginosa
Excerpt: as §2

In the case of CO/N=C(\C(=O)N[C@@H]1C(=O)N2C(C(=O)O)=C(COC(C)=O)CS[C@H]12)c1csc(N)n1 [Cefotaxime], the “CA-SFM Interpretation” value ([1]; Cd CA-SFM 2011) is reported as “Resistant”, the “CLSI Interpretation” value ([1]; Cd CLSI 2011) is reported as “Resistant” and the “EUCAST Interpretation” value ([1]; Cd EUCAST 2011) is reported as “Intermediate”. For the same molecule, the Diameter ([1]; Table C1) was 19 mm, the Results ([1]; Table C1, against Dmin Dmax) was “Intermediate” and the diameter in mm ([1]; Table C2) was 19 mm. For the same molecule, the Diameter ([2]; EcR2, disk diffusion, Table B1) was 24, the Results ([2]; EcR2, rows that print a diameter, Table B1) was “Intermediate” and the Diameter ([2]; EcR2, Table B2, diameters) was 24 mm. The “CA-SFM Interpretation” value ([2]; EcR2, from diameter, CA-SFM 2011) was “Intermediate”, the “CLSI Interpretation” value ([2]; EcR2, from diameter, CLSI 2011) was “Intermediate” and the “EUCAST Interpretation” value ([2]; EcR2, from diameter, EUCAST 2011) was “Resistant”. For the same molecule, the Diameter ([3]; EcR1, disk diffusion) was 30 mm, the Results ([3]; EcR1, interpretation of the diameter against Dmin Dmax) was “Susceptible” and the “CA-SFM Interpretation” value ([4]; EcR1, MIC against Cc CA-SFM 2011) was “Susceptible”. The “CLSI Interpretation” value ([4]; EcR1, MIC against Cc CLSI 2011) was “Susceptible”, the “EUCAST Interpretation” value ([4]; EcR1, MIC against Cc EUCAST 2011) was “Susceptible” and the Results ([4]; EcR1, interpretation of the MIC, Table A1) was “Susceptible”. The MIC ([4]; EcR1, Table A2, read-out: MIC mg/L (diameter in mm)) was at most 1 mg/L, the MIC ([4]; EcR1, VITEK 2, Table A1, read-out: MIC) was at most 1 mg/L and the MIC [5] was 0.06 µg/mL. For the same molecule, the MIC [6] was 128 µg/mL, the MIC [7] was 4 µg/mL and the MIC ([8]; ATCC25922, antibiotic alone (second value of cell), E. coli ATCC 25922, read-out: Initial MICs) was 0.06 mg/L.

With CN[C@H](CC(C)C)C(=O)N[C@H]1C(=O)N[C@@H](CC(N)=O)C(=O)N[C@H]2C(=O)N[C@H]3C(=O)N[C@H](C(=O)N[C@H](C(=O)O)c4cc(O)cc(O)c4-c4cc3ccc4O)[C@H](O)c3ccc(c(Cl)c3)Oc3cc2cc(c3O[C@@H]2O[C@H](CO)[C@@H](O)[C@H](O)[C@H]2O[C@H]2C[C@](C)(N)[C@H](O)[C@H](C)O2)Oc2ccc(cc2Cl)[C@H]1O [Vancomycin] the “CA-SFM Interpretation” value ([9]; SaR1, Cc CA-SFM 2011) was “Susceptible”, the “CLSI Interpretation” value ([9]; SaR1, Cc CLSI 2011) was “Susceptible” and the “EUCAST Interpretation” value ([9]; SaR1, Cc EUCAST 2011) was “Susceptible”. For the same molecule, the Results ([9]; SaR1, Table D1, from MIC) was “Susceptible”, the “MIC mg/L” value ([9]; SaR1, Table D2) was “≦1 mg/L” and the MIC ([9]; Staphylococcus aureus, read-out: MIC mg/L) was at most 1 mg/L. For the same molecule, the Results ([10]; SaR4, Table F1, MIC) was “Susceptible”, the “CA-SFM Interpretation” value ([10]; SaR4, from MIC, Cc CA-SFM 2011) was “Susceptible” and the “CLSI Interpretation” value ([10]; SaR4, from MIC, Cc CLSI 2011) was “Susceptible”. For the same molecule, the “EUCAST Interpretation” value ([10]; SaR4, from MIC, Cc EUCAST 2011) was “Susceptible”, the MIC [10] was 1 mg/L (≈ 0.69 µM) and the MIC ([10]; read-out: MIC mg/L) was 1 mg/L (≈ 0.69 µM). For the same molecule, the “CA-SFM Interpretation” value ([11]; Cd CA-SFM 2011) was “Susceptible”, the Results ([11]; Table E1, against Dmin Dmax) was “Susceptible” and the diameter in mm ([11]; Table E2) was 28 mm. For the same molecule, the Results [12] was “Susceptible”, the MIC [13] was 0.25 µg/mL and the MIC [14] was 0.25 µg/mL. For the same molecule, the MIC [15] was 0.25 µg/mL and the MIC ([16]; ATCC29213, read-out: Initial MICs (mg/L)) was 0.5 mg/L.

With N=C(N)c1ccc(OCCCCCCOc2ccc(C(=N)N)cc2)cc1 [Hexamidine] the MIC ([17]; ATCC27853, read-out: Initial MICs (mg/L), antiseptic (ATS)) was 32 mg/L, the MIC ([16]; ATCC29213, read-out: Initial MICs (mg/L), antiseptic (ATS)) was under 1 mg/L and the MIC ([8]; ATCC25922, read-out: Initial MICs (mg/L), antiseptic (ATS)) was 8 mg/L.

In the case of [H]/N=C(\N/C(=N/[H])NCCCCCCNC(=N)NC(=N)Nc1ccc(Cl)cc1)Nc1ccc(Cl)cc1 [Chlorhexidine], the MIC ([17]; ATCC27853, antiseptic alone, P. aeruginosa ATCC 27853, read-out: Initial MICs (mg/L), antiseptic (ATS)) is reported as 4 mg/L, the MIC ([16]; ATCC29213, antiseptic alone, S. aureus ATCC 29213, read-out: Initial MICs (mg/L), antiseptic (ATS)) is reported as under 1 mg/L and the MIC ([8]; ATCC25922, antiseptic alone, E. coli ATCC 25922, read-out: Initial MICs (mg/L), antiseptic (ATS)) is reported as under 1 mg/L.
